For assay [1], the system named is Escherichia coli. Description: Increase in ROS levels in Escherichia coli K12 MG1655 assessed as ratio of ROS with antibiotic to ROS without antibiotic. Type of assay: functional.
Assay [2] has as its system Escherichia coli. The experiment in a line: Susceptibility of Escherichia coli K12 MG1655 in presence of 10 mM glutathione by agar dilution method relative to control. Type of assay: functional. In general terms: In agar dilution, organisms are placed on agar that contains the substance at set levels.
For assay [3], the system named is Escherichia coli. Description: Susceptibility of Escherichia coli K12 MG1655 by agar dilution method. Type of assay: functional.
The test system of assay [4] is Escherichia coli. The experiment in a line: Decrease in sensitivity of Escherichia coli K12 MG1655 assessed as reduction in zone of inhibition in presence of 10 mM ascorbic acid by disk diffusion method. Type of assay: functional, organism-based. A general note: A growth-free zone around the sample is the usual read-out of agar diffusion tests.
The test system of assay [5] is Escherichia coli. The experiment in a line: Antibacterial activity against Escherichia coli K12 W3110 in presence of 10 mM ascorbic acid. Type of assay: functional.
The test system of assay [6] is Escherichia coli. The experiment in a line: Antibacterial activity against Escherichia coli K12 DH5alpha. Type of assay: functional.
Assay [7] has as its system Escherichia coli. Description: Antibacterial activity against Escherichia coli K12 MG1655 in presence of ascorbic acid by agar dilution method relative to control. Type of assay: functional.
For assay [8], the system named is Escherichia coli. Description: Antibacterial activity against Escherichia coli K12 W3110. Type of assay: functional.
For assay [9], the system named is Escherichia coli. The experiment in a line: Antibacterial activity against Escherichia coli K12 XL1 Blue. Type of assay: functional.
Assay [10] concerns Escherichia coli. Description: Antibacterial activity against Escherichia coli K12 DH5alpha in presence of 10 mM ascorbic acid. Type of assay: functional.
The subject of assay [11] is Escherichia coli. The experiment in a line: Decrease in sensitivity of Escherichia coli K12 MG1655 assessed as reduction in zone of inhibition in presence of 10 mM glutathione by disk diffusion method. Type of assay: functional, organism-based.
The subject of assay [12] is Escherichia coli. The experiment in a line: Antibacterial activity against Escherichia coli K12 XL1 Blue in presence of 10 mM ascorbic acid. Type of assay: functional.

Values after ≈ are worked out from the molar mass of the structure shown. Active and inactive are the calls of the source. The calls are words filed in the database; no cut-off is given here. Some results are limits rather than exact numbers.

One may read the MIC as the lowest concentration that inhibits growth of the organism.

With `CC1=CC(=O)c2ccccc2C1=O` [MENADIONE], the Ratio in the assay on Escherichia coli [1] was 2.02.

For `O=C(O)c1cn(C2CC2)c2cc(N3CCNCC3)c(F)cc2c1=O` [CIPROFLOXACIN], the Ratio in the assay with Escherichia coli [1] was determined as 1.1.

For the compound `CN(C)[C@@H]1C(O)=C(C(N)=O)C(=O)[C@@]2(O)C(O)=C3C(=O)c4c(O)cccc4[C@@](C)(O)[C@H]3C[C@@H]12` [TETRACYCLINE], the MIC in the assay on Escherichia coli [2] worked out at 4 µg/mL; with Escherichia coli [3] it was 4 µg/mL (≈ 9 µM). For the same compound, the Ratio in the assay on Escherichia coli [1] was found to be 0.96.

For the compound `CN[C@@H]1[C@H](O)[C@H](NC)[C@H]2O[C@@]3(O)C(=O)C[C@@H](C)O[C@H]3O[C@@H]2[C@H]1O` [SPECTINOMYCIN], the MIC in the assay on Escherichia coli [2] was > 300 µg/mL; against Escherichia coli [3], 20 µg/mL (≈ 60.2 µM).

In the case of `O=C(N[C@H](CO)[C@H](O)c1ccc([N+](=O)[O-])cc1)C(Cl)Cl` [CHLORAMPHENICOL], the MIC with Escherichia coli [2] worked out at 4 µg/mL; with Escherichia coli [3], 8 µg/mL (≈ 24.8 µM).

For the compound GENTAMICIN, the MIC with Escherichia coli [2] is > 200 µg/mL; in the assay on Escherichia coli [3] it was 2 µg/mL. Besides, in the assay with Escherichia coli [1], the Ratio worked out at 1.

Turning to `NC[C@H]1O[C@H](O[C@H]2[C@H](O)[C@@H](O[C@H]3O[C@H](CO)[C@@H](O)[C@H](N)[C@H]3O)[C@H](N)C[C@@H]2N)[C@H](O)[C@@H](O)[C@@H]1O` [KANAMYCIN], the MIC is > 250 µg/mL with Escherichia coli [2] and 6 µg/mL (≈ 12.4 µM) against Escherichia coli [3]. Moreover, in the assay with Escherichia coli [1], the Ratio is reported as 0.87.

Take `CN[C@@H]1[C@H](O[C@H]2[C@H](O[C@H]3[C@H](O)[C@@H](O)[C@H](N=C(N)N)[C@@H](O)[C@@H]3N=C(N)N)O[C@@H](C)[C@]2(O)C=O)O[C@@H](CO)[C@H](O)[C@H]1O` [STREPTOMYCIN]: the MIC in the assay with Escherichia coli [2] was > 250 µg/mL; in the assay on Escherichia coli [5], > 8 µg/mL; against Escherichia coli [3], 8 µg/mL (≈ 13.8 µM); against Escherichia coli [6], 4 µg/mL (≈ 6.88 µM); in the assay on Escherichia coli [7], 20 µg/mL; in the assay with Escherichia coli [8] it was 4 µg/mL (≈ 6.88 µM). Also, the MIC was 4 µg/mL (≈ 6.88 µM) with Escherichia coli [9], > 8 µg/mL in the assay with Escherichia coli [10] and > 8 µg/mL in the assay on Escherichia coli [12]. Also, the result in the assay on Escherichia coli [4] and in the assay on Escherichia coli [11] was Active. In addition, the Ratio with Escherichia coli [1] is given as 0.78.

The values above are taken from ChEMBL document CHEMBL1142094, “Effects of glutathione and ascorbic acid on streptomycin sensitivity of Escherichia coli” (2007).
